Target: Menin-MLL (Homo sapiens (Human), UniProt O00255)
Experiment: Determination of binding constants (Ki) to Menin-MLL (HTRF)
Settings: HTRF, 0.25 nM H-FL-Menin, 3.2 nM FITC-MLL-4-43, 24 hr incubation; for Ki: read-out: Menin-MLL Ki HTRF Assay: Ki

Menin-MLL, sequence (O00255 whole entry): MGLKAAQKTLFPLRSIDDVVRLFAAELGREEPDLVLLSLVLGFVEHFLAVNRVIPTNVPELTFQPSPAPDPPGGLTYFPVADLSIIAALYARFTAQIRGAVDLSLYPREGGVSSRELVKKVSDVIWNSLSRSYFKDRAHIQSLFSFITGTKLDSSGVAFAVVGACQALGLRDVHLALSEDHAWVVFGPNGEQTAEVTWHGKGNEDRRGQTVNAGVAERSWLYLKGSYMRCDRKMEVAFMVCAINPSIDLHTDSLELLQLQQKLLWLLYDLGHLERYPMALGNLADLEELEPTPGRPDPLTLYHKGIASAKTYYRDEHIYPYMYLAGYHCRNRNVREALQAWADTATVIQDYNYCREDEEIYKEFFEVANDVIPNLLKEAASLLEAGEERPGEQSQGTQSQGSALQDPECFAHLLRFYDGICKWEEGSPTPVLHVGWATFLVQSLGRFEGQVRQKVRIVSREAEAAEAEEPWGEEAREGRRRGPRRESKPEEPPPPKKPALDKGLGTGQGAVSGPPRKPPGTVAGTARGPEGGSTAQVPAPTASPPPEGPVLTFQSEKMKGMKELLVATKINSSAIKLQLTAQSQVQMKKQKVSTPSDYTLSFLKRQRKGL

| SMILES | EC50 [nM] | Ki [nM] |
| --- | --- | --- |
| CCN(C(=O)c1cc(F)ccc1Oc1cncnc1N1CC2(CCN(C[C@@H]3CC[C@@H](NS(=O)(=O)N4CC(F)(F)C4)CO3)CC2)C1)C(C)C [Compound 70, 2-((4-(7-(((2S,5R)-5-((3,3-Difluoroazetidine)-1-sulfonamido)tetrahydro-2H-pyran-2-yl)methyl)-2,7-diazaspiro[3.5]nonan-2-yl)pyrimidin-5-yl)oxy)-N-ethyl-5-fluoro-N-isopropylbenzamide] | < 50 | < 1 |
| CCN(C(=O)c1cc(F)ccc1Oc1cncnc1N1CC2(CCN(C[C@@H]3CC[C@@H](NS(N)(=O)=O)CO3)CC2)C1)C(C)C [Compound 73, N-Ethyl-5-fluoro-N-isopropyl-2-((4-(7-(((2S,5R)-5-(sulfamoylamino)tetrahydro-2H-pyran-2-yl)methyl)-2,7-diazaspiro[3.5]nonan-2-yl)pyrimidin-5-yl)oxy)benzamide] |  | < 1 |
| CCN(C(=O)c1cc(F)ccc1Oc1cncnc1N1CC2(CCN(C[C@@H]3CC[C@@H](NS(=O)(=O)c4ccc(=O)n(C)c4)CO3)CC2)C1)C(C)C [Compound 74, N-Ethyl-5-fluoro-N-isopropyl-2-((4-(7-(((2S,5R)-5-((1-methyl-6-oxo-1,6-dihydropyridine)-3-sulfonamido)tetrahydro-2H-pyran-2-yl)methyl)-2,7-diazaspiro[3.5]nonan-2-yl)pyrimidin-5-yl)oxy)benzamide] |  | < 1 |
| CC(C)N(C(=O)c1cc(F)ccc1Oc1cncnc1N1CC2(CCN(C[C@@H]3CC[C@@H](NS(=O)(=O)N(C)C)CO3)CC2)C1)C(C)C [Compound 77, 2-((4-(7-(((2S,5R)-5-((N,N-Dimethylsulfamoyl)amino)tetrahydro-2H-pyran-2-yl)methyl)-2,7-diazaspiro[3.5]nonan-2-yl)pyrimidin-5-yl)oxy)-5-fluoro-N,N-diisopropylbenzamide] | < 50 | < 1 |
| CC(C)N(C(=O)c1cc(F)ccc1Oc1cncnc1N1CC2(CCN(C[C@@H]3CC[C@@H](NS(=O)(=O)C4CCOCC4)CO3)CC2)C1)C(C)C [Compound 79] | < 50 | < 1 |
| CC(C)N(C(=O)c1cc(F)ccc1Oc1cncnc1N1CC2(CCN(C[C@@H]3CC[C@@H](NS(=O)(=O)c4ccc(=O)n(C)c4)CO3)CC2)C1)C(C)C [Compound 92, 5-Fluoro-N,N-diisopropyl-2-((4-(7-(((2S,5R)-5-((1-methyl-6-oxo-1,6-dihydropyridine)-3-sulfonamido)tetrahydro-2H-pyran-2-yl)methyl)-2,7-diazaspiro[3.5]nonan-2-yl)pyrimidin-5-yl)oxy)benzamide] |  | < 1 |
| CC(C)N(CC(F)F)C(=O)c1cc(F)ccc1Oc1cncnc1N1CC2(CCN(C[C@@H]3CC[C@@H](NS(C)(=O)=O)CO3)CC2)C1 [Compound 96, N-(2,2-Difluoroethyl)-5-fluoro-N-isopropyl-2-((4-(7-(((2S,5R)-5-(methylsulfonamido)tetrahydro-2H-pyran-2-yl)methyl)-2,7-diazaspiro[3.5]nonan-2-yl)pyrimidin-5-yl)oxy)benzamide] | < 50 | < 1 |
| CC(C)N(CC(F)F)C(=O)c1cc(F)ccc1Oc1cncnc1N1CC2(CCN(C[C@@H]3CC[C@@H](NS(=O)(=O)C4CCOCC4)CO3)CC2)C1 [Compound 98, N-(2,2-Difluoroethyl)-5-fluoro-N-isopropyl-2-((4-(7-(((2S,5R)-5-((tetrahydro-2H-pyran)-4-sulfonamido)tetrahydro-2H-pyran-2-yl)methyl)-2,7-diazaspiro[3.5]nonan-2-yl)pyrimidin-5-yl)oxy)benzamide] | < 50 | < 1 |
| CCn1cc(S(=O)(=O)N[C@@H]2CC[C@@H](CN3CCC4(CC3)CN(c3ncncc3Oc3ccc(F)cc3C(=O)N(CC(F)F)C(C)C)C4)OC2)cn1 [Compound 106, N-(2,2-Difluoroethyl)-2-((4-(7-(((2S,5R)-5-((1-ethyl-1H-pyrazole)-4-sulfonamido)tetrahydro-2H-pyran-2-yl)methyl)-2,7-diazaspiro[3.5]nonan-2-yl)pyrimidin-5-yl)oxy)-5-fluoro-N-isopropylbenzamide] |  | < 1 |
| CC(C)N(CC(F)(F)F)C(=O)c1cc(F)ccc1Oc1cncnc1N1CC2(CCN(C[C@@H]3CC[C@@H](NS(=O)(=O)N4CCOCC4)CO3)CC2)C1 [Compound 108, 5-Fluoro-N-isopropyl-2-((4-(7-(((2S,5R)-5-(morpholine-4-sulfonamido)tetrahydro-2H-pyran-2-yl)methyl)-2,7-diazaspiro[3.5]nonan-2-yl)pyrimidin-5-yl)oxy)-N-(2,2,2-trifluoroethyl)benzamide] | < 50 | < 1 |
| CC(C)N(CC(F)(F)F)C(=O)c1cc(F)ccc1Oc1cncnc1N1CC2(CCN(C[C@@H]3CC[C@@H](NS(=O)(=O)C(C)C)CO3)CC2)C1 [Compound 109, 5-Fluoro-N-isopropyl-2-((4-(7-(((2S,5R)-5-((1-methylethyl)sulfonamido)tetrahydro-2H-pyran-2-yl)methyl)-2,7-diazaspiro[3.5]nonan-2-yl)pyrimidin-5-yl)oxy)-N-(2,2,2-trifluoroethyl)benzamide] | < 50 | < 1 |
| CC(C)N(C(=O)c1cc(F)ccc1Oc1cncnc1N1CC2(CCN(C[C@@H]3CC[C@@H](NS(=O)(=O)C(C)C)CO3)CC2)C1)C1CC(F)(F)C1 [Compound 110, N-(3,3-Difluorocyclobutyl)-5-fluoro-N-isopropyl-2-((4-(7-(((2S,5R)-5-((1-methylethyl)sulfonamido)tetrahydro-2H-pyran-2-yl)methyl)-2,7-diazaspiro[3.5]nonan-2-yl)pyrimidin-5-yl)oxy)benzamide] | < 50 | < 1 |
| CC(C)N(C(=O)c1cc(F)ccc1Oc1cncnc1N1CC2(CCN(C[C@@H]3CC[C@@H](NS(C)(=O)=O)CO3)CC2)C1)C1CC(F)(F)C1 [Compound 112, N-(3,3-Difluorocyclobutyl)-5-fluoro-N-isopropyl-2-((4-(7-(((2S,5R)-5-(methylsulfonamido)tetrahydro-2H-pyran-2-yl)methyl)-2,7-diazaspiro[3.5]nonan-2-yl)pyrimidin-5-yl)oxy)benzamide] | < 50 | < 1 |
| CC(C)N(C(=O)c1cc(F)ccc1Oc1cncnc1N1CC2(CCN(C[C@@H]3CC[C@@H](NS(=O)(=O)C4COC4)CO3)CC2)C1)C1CC(F)(F)C1 [Compound 115, N-(3,3-Difluorocyclobutyl)-5-fluoro-N-isopropyl-2-((4-(7-(((2S,5R)-5-(oxetane-3-sulfonamido)tetrahydro-2H-pyran-2-yl)methyl)-2,7-diazaspiro[3.5]nonan-2-yl)pyrimidin-5-yl)oxy)benzamide] | < 50 | < 1 |
| CC(C)N(C(=O)c1cc(F)ccc1Oc1cncnc1N1CC2(CCN(C[C@@H]3CC[C@@H](NS(=O)(=O)N4CCOCC4)CO3)CC2)C1)C1CC(F)(F)C1 [Compound 116, N-(3,3-Difluorocyclobutyl)-5-fluoro-N-isopropyl-2-((4-(7-(((2S,5R)-5-(morpholine-4-sulfonamido)tetrahydro-2H-pyran-2-yl)methyl)-2,7-diazaspiro[3.5]nonan-2-yl)pyrimidin-5-yl)oxy)benzamide] | < 50 | < 1 |
| CC(C)N(C(=O)c1cc(F)ccc1Oc1cncnc1N1CC2(CCN(C[C@@H]3CC[C@@H](NS(N)(=O)=O)CO3)CC2)C1)C1CC(F)(F)C1 [Compound 117, N-(3,3-Difluorocyclobutyl)-5-fluoro-N-isopropyl-2-((4-(7-(((2S,5R)-5-(sulfamoylamino)tetrahydro-2H-pyran-2-yl)methyl)-2,7-diazaspiro[3.5]nonan-2-yl)pyrimidin-5-yl)oxy)benzamide] | < 50 | < 1 |
| C[C@@H]1COC[C@@H](C)N1C(=O)c1cc(F)ccc1Oc1cncnc1N1CC2(CCN(C[C@@H]3CC[C@@H](NS(=O)(=O)N4CCCC4)CO3)CC2)C1 [Compound 124, N-((3R,6S)-6-((2-(5-(2-((3R,5R)-3,5-Dimethylmorpholine-4-carbonyl)-4-fluorophenoxy)pyrimidin-4-yl)-2,7-diazaspiro[3.5]nonan-7-yl)methyl)tetrahydro-2H-pyran-3-yl)pyrrolidine-1-sulfonamide] |  | < 1 |
| C[C@@H]1COC[C@@H](C)N1C(=O)c1cc(F)ccc1Oc1cncnc1N1CC2(CCN(C[C@@H]3CC[C@@H](NS(=O)(=O)c4cnn(C)c4)CO3)CC2)C1 [Compound 126] |  | < 1 |
| C[C@@H]1COC[C@@H](C)N1C(=O)c1cc(F)ccc1Oc1cncnc1N1CC2(CCN(C[C@@H]3CC[C@@H](NS(=O)(=O)c4ccn(C)n4)CO3)CC2)C1 [Compound 127] |  | < 1 |
| CCN(C)S(=O)(=O)N[C@@H]1CC[C@@H](CN2CCC3(CC2)CN(c2ncncc2Oc2ccc(F)cc2C(=O)N2[C@H](C)COC[C@H]2C)C3)OC1 [Compound 128, {[(3R,6S)-6-{[2-(5-{2-[(3R,5R)-3,5-Dimethylmorpholine-4-carbonyl]-4-fluorophenoxy}pyrimidin-4-yl)-2,7-diazaspiro[3.5]nonan-7-yl]methyl}oxan-3-yl]sulfamoyl}(ethyl)methylamine] |  | < 1 |
| C[C@@H]1COC[C@@H](C)N1C(=O)c1cc(F)ccc1Oc1cncnc1N1CC2(CCN(C[C@@H]3CC[C@@H](NS(=O)(=O)N(C)C4CC4)CO3)CC2)C1 [Compound 129, N-{[(3R,6S)-6-{[2-(5-{2-[(3R,5R)-3,5-Dimethylmorpholine-4-carbonyl]-4-fluorophenoxy}pyrimidin-4-yl)-2,7-diazaspiro[3.5]nonan-7-yl]methyl}oxan-3-yl]sulfamoyl}-N-methylcyclopropanamine] |  | < 1 |
| Cc1nc(S(=O)(=O)N[C@@H]2CC[C@@H](CN3CCC4(CC3)CN(c3ncncc3Oc3ccc(F)cc3C(=O)N3[C@H](C)COC[C@@H]3C)C4)OC2)cs1 [Compound 131, N-((3R,6S)-6-((2-(5-(2-((3S,5R)-3,5-Dimethylmorpholine-4-carbonyl)-4-fluorophenoxy)pyrimidin-4-yl)-2,7-diazaspiro[3.5]nonan-7-yl)methyl)tetrahydro-2H-pyran-3-yl)-2-methylthiazole-4-sulfonamide] |  | < 1 |

Reference: patent publication US11919901B2 (Syndax Pharmaceuticals, Inc., priority 2021, dated 2024)
